Test results from patent US7910623B2, “Synthesis of scabronines and analogues thereof” (Sloan-Kettering Institute for Cancer Research, priority 2008, dated 2011).
Entries after “also recorded” stand apart in the source; their conditions may differ. Like-named read-outs stand apart in the source and are kept apart here.

What was measured:
PC-12 cells = assay: Neurite outgrowth of PC-12 cells cultured in compound-conditioned 1321N1 medium; type: cell-based, rat; conditions: 1321N1 medium conditioned with compound at 30 μM for 48 hours, PC-12 3 days; for neurite outgrowth of PC-12 cells: vs DMSO control
Procedure: (§1) The 1321N1 human astrocytoma cells were cultured in Dulbecco's modified Eagles's medium (DMEM) supplemented with 2 mM L-Glutamine and 10% fetal bovine serum (FBS). PC-12 cells were grown in F-12K medium supplemented with 15% horse serum and 2.5% FBS. For compound treatment, 1321N1 cells were incubated with compounds 2 and 8 at 30 μM for 48 hours in DMEM medium. The resulting conditioned media from the 1321N1 cells were used to culture PC-12 cell for induction of PC-12 neurite outgrowth. After 3 days incubation, PC-12 cells were washed with phosphate-buffered saline (PBS) and fixed with 4% paraformaldeyde. Neurites were observed under a phase-contrast ECLIPSE TE2000-S Nikon microscope.
The differentiation of PC-12 cells was scored as follows: cells without neurites were scored 0; cells with neurites as long as one cell body diameter were scored 1; cells with neurites 2-3 times longer than their cell body diameter were scored 2; and cells with neurites that were extremely long or forming a network were scored 3. The mean of differentiation scores were obtained from 200 cells (4 wells) under the phase-contrast microscope. Data are expressed as means±S.E.M (standard error of mean). Values represent the Means±S.E.M. for four wells.

1321N1 human glial cells = assay: Biosynthesis and secretion of neurotrophic factors from 1321N1 cells treated with compound; type: cell-based; conditions: 30 μM, 48 hours
Procedure: as §1

[1] = tested on: rat pheochromocytoma cells (PC-12); conditions: cited from earlier work
[2] = tested on: 1321N1 human astroglial cells; conditions: cited from earlier work

Row | SMILES | neurite outgrowth of PC-12 cells compared with compound 2 or purified NGF (50 ng/mL) (PC-12 cells) | neurite outgrowth of PC-12 cells (PC-12 cells) | biosynthesis and secretion of neurotrophic factors (1321N1 human glial cells) | neuronal differentiation of PC-12 cells [1] | production and excretion of nerve growth factor (NGF) [2] | production and excretion of nerve growth factor (NGF) ([2]; listed as scabronine G)
1 | COC(=O)[C@]12CCC(C(C)C)=C1[C@H]1CCC(C=O)=CC(=O)[C@]1(C)CC2 [Compound 8] | greater activity as evidenced by increased neurite length; also recorded: comparable to those produced by direct exposure of PC-12 cells to purified NGF; also recorded: greater potency than compound 2 | significantly induced neurite outgrowth | – | – | – | –
2 | COC(=O)[C@]12CCC(C(C)C)=C1[C@H]1CC=C(C=O)CC(=O)[C@]1(C)CC2 [Compound 2, Scabronine G Methyl Ester] | comparable to those produced by direct exposure of PC-12 cells to purified NGF; also recorded: same degree of neurite outgrowth as that of 50 ng/mL of NGF | significant neurite outgrowth; also recorded: significantly induced neurite outgrowth | effectively enhanced the biosynthesis and secretion of neurotrophic factors | dramatic neuronal differentiation | – | –
3 | CC(C)C1=C2[C@H]3CC=C(C=O)CC(=O)[C@]3(C)CC[C@@]2(C(=O)O)CC1 [Compound 1, Scabronine G] | – | – | – | dramatic neuronal differentiation | induce the production and excretion of nerve growth factor (NGF) | induces the production and excretion of nerve growth factor (NGF)
